This is an account of results in US20220220106A1, “QUINOLINE COMPOUNDS AND PHARMACEUTICAL COMPOSITIONS AND USES THEREOF” (Academy of Military Medical Sciences, priority 2019, published 2022).

Where two headings read alike, the source gives them in different places. Bounds are passed on as bounds.

Data set [1] has as its system Enterovirus 71 (EV71) H strain. In words: In vitro anti-EV71 activity (antiviral activity in RD cells, CellTiter-Glo). Type of data set: cell-based. Conditions: for in vitro anti-EV71 activity, in words: EV71, RD cells; for IC50: EV71 H strain, RD cells, 4 days, CellTiter-Glo, read-out: IC50. Here is the method:
According to the mass and molecular weight of the compound to be tested, the compound to be tested was dissolved to 100 mM (mmol/L) with DMSO.
Detection of Antiviral Activity:
(1) First, the compound to be tested was diluted to 800 μM with cell maintenance solution (DMEM+2% FBS, Gibco, catalog numbers: 11995-065, 1600-044), and three-fold gradient dilution was performed to prepare 10 concentrations in total. The diluted compound was added to a 96-well plate with white wall and transparent bottom, 50 μl per well. To both the cell control group and the virus control group, an equal volume of the cell maintenance solution was added.
(2) EV71 virus (purchased from ATCC) was taken out from the −80° C. refrigerator and equilibrated to room temperature.
(3) The virus seed was diluted with a virus growth solution (DMEM+2% FBS, Gibco, catalog numbers: 11995-065, 1600-044) to 100TCID50, the diluted virus seed was added to the 96-well plate of (1), with […] per well. The same volume of the virus growth solution was added to the cell control group.
(4) RD cells (purchased from ATCC) were inoculated at a concentration of 1*10^5/mL into the 96-well plate of (1), with 100 μL per well, to reach a final volume of 200 μL per well. The final concentration of drug was 0.25 times the initial concentration.
(5) RD cells were cultured at 37° C. for 4 days for testing.
(6) The Buffer of CellTiter-Glo® luminescent cell viability assay reagent (Promega) was mixed with the substrate in the dark to prepare a working solution.
(7) The culture medium in the plate was discarded, the plate was dried by patting, 100 μL of the detection reagent was added to each well, and the 96-well plate was shaken on an orbital shaker for 4 minutes to induce cell lysis. After keeping in the dark and subjecting to signal stabilization for 15 minutes, the chemiluminescence unit was detected by using MD5 microplate reader (Molecular Devices), and the plate reading program was performed according to the CellTiter-Glo preset program.
The inhibition rate-concentration curve was fitted to S-curve by using origin8.0 software to calculate the IC50 value of the compound to be tested.
(§1) The formula for calculating the inhibition rates of drug at different dilution degrees was as follows: inhibition rate (%)=(average value of cell control group−value of experimental group)/(average value of cell control group−minimum value of experimental group)*100
(§2) The inhibition rate-concentration curve was fitted to S-curve by using origin8.0 software, and the IC50 value of the compound to be tested was calculated. The same method was used to calculate the TD50 value, and the selection index SI=TD50/IC50 was calculated according to the half maximal inhibitory concentration IC50 and the median toxic dose TD50.
(In general: ATP-based viability assays read luminescence as a measure of living cells.)

A further data set concerns RD cells. In words: Detection of cytotoxicity in RD cells (CellTiter-Glo). In kind it is cell-based. Conditions: 4 days, CellTiter-Glo, median toxic dose. The method, then: Detection of Cytotoxicity:
(1) The compound to be tested was diluted to a concentration of 400 μM with the cell maintenance solution, and 3-fold gradient dilution was carried out to obtain 10 concentrations in total.
(2) The diluted compound was added to a 96-well plate with white wall and transparent bottom, with 100 μL per well. An equal volume of the cell maintenance solution was added to the cell control group.
(3) RD cells were inoculated into the above 96-well plate at a concentration of 1*10^5/mL, with 100 μL per well, to reach a final volume of 200 μL per well, and the final concentration of drug was 0.5 times the pretreatment concentration.
(4) The RD cells were cultured at 37° C. for 4 days for testing.
(5) The Buffer of CellTiter-Glo® luminescent cell viability assay reagent was mixed with the substrate in the dark to prepare a working solution.
(6) The culture medium in the plate was discarded, the plate was dried by patting, 100 μL of the detection reagent was added to each well, and the 96-well plate was shaken on an orbital shaker for 4 minutes to induce cell lysis. After keeping in the dark and subjecting to signal stabilization for 15 minutes, the chemiluminescence unit was detected, and the plate reading program was performed according to the CellTiter-Glo preset program.
as §1, §2

In general, IC50 refers to the midpoint of a concentration-inhibition curve. What is called melting point is the temperature of the solid-liquid transition. Compound `CC(=O)/C=C/c1cnc2ccc(-c3ccc(N)nc3)cc2c1Nc1cccc(C(F)(F)F)c1` [HTL-2-34, (E)-6-[3-(6-amino)pyridyl]-4-[3-(trifluoromethyl)phenyl]aminoquinoline-3-butenone] displayed a melting point of 172 to 175 °C. The “in vitro anti-EV71 activity, in words” value in data set [1] was “moderate anti-EV71 activity”. Also, the IC50 in data set [1] (Enterovirus A, 96 h) was 1.78 ± 0.03 µM. The compound also displayed a TD50 in the data set on RD cells of 4.99 ± 1.55 µM.

In turn, `CC(=O)/C=C/c1cnc2ccc(-c3cccc(N)c3)cc2c1Nc1cccc(C(F)(F)F)c1` [HTL-2-42, (E)-6-(3-aminophenyl)-4-[3-(trifluoromethyl)phenyl]aminoquinoline-3-butenone] displayed a melting point of 184 to 186 °C. Also, the IC50 in data set [1] (Enterovirus A, 96 h) is more than 200 µM. The same compound registered a TD50 with RD cells of more than 200 µM.

Compound `CC(=O)/C=C/c1cnc2ccc(-c3ccncc3)cc2c1Nc1cccc(C(F)(F)F)c1` [HTL-3-04, (E)-6-(4-pyridyl)-4-[3-(trifluoromethyl)phenyl]aminoquinoline-3-butenone] yielded a melting point of 192 to 195 °C. For the same compound, in data set [1] (Enterovirus A, 96 h), the IC50 was more than 200 µM. This compound also had a TD50 in the data set with RD cells of more than 200 µM.

Consider `COc1cncc(-c2ccc3ncc(/C=C/C(C)=O)c(Nc4cccc(C(F)(F)F)c4)c3c2)c1` [HTL-3-07, (E)-6-[3-(5-methoxy)pyridyl]-4-[3-(trifluoromethyl)phenyl]aminoquinoline-3-butenone], for which the melting point lay within 164 to 167 °C. Besides, in data set [1] (Enterovirus A, 96 h), the IC50 is more than 200 µM. In the data set with RD cells, this compound gave a TD50 of more than 200 µM.

Compound `CC(=O)/C=C/c1cnc2ccc(-c3ccc(O)cc3)cc2c1Nc1cccc(C(F)(F)F)c1` [HTL-3-11, (E)-6-(4-hydroxy)phenyl-4-[3-(trifluoromethyl)phenyl]aminoquinoline-3-butenone] came in with a melting point of 218 to 222 °C. In addition, in data set [1] (Enterovirus A, 96 h), the IC50 was more than 200 µM. The compound further yielded a TD50 in the data set on RD cells of more than 200 µM.

As for `CC(=O)/C=C/c1cnc2ccc(-c3ccc(F)cc3)cc2c1Nc1cccc(C(F)(F)F)c1` [HTL-3-12, (E)-6-(4-fluoro)phenyl-4-[3-(trifluoromethyl)phenyl]aminoquinoline-3-butenone], the melting point is 167 to 169 °C. Also, the IC50 in data set [1] (Enterovirus A, 96 h) is more than 200 µM. In the data set on RD cells, this compound yielded a TD50 of more than 200 µM.

The compound `CC(=O)/C=C/c1cnc2ccc(-c3ccc(C#N)cc3)cc2c1Nc1cccc(C(F)(F)F)c1` [HTL-3-15, (E)-6-(4-cyano)phenyl-4-[3-(trifluoromethyl)phenyl]aminoquinoline-3-butenone] displayed a melting point of 173 to 174 °C. Moreover, the IC50 in data set [1] (Enterovirus A, 96 h) is more than 200 µM. The compound also came in with a TD50 in the data set on RD cells of more than 200 µM.

`CCOc1cccc(-c2ccc3ncc(/C=C/C(C)=O)c(Nc4cccc(C(F)(F)F)c4)c3c2)c1` [HTL-3-16, (E)-6-(3-ethoxy)phenyl-4-[3-(trifluoromethyl)phenyl]aminoquinoline-3-butenone] came in with a melting point of 184 to 185 °C. In addition, in data set [1] (Enterovirus A, 96 h), the IC50 is more than 200 µM. Besides, the TD50 with RD cells came out at 0.83 ± 0.79 µM.

`CC(=O)/C=C/c1cnc2ccc(-c3ccc(C(F)(F)F)cc3)cc2c1Nc1cccc(C(F)(F)F)c1` [HTL-3-18, (E)-6-[4-(trifluoromethyl)phenyl]-4-[3-(trifluoromethyl)phenyl]aminoquinoline-3-butenone] registered a melting point of 189 to 191 °C. Moreover, in data set [1] (Enterovirus A, 96 h), the IC50 is more than 200 µM. The TD50 in the data set on RD cells is more than 200 µM.

In turn, `CC(=O)/C=C/c1cnc2ccc(-c3ccoc3)cc2c1Nc1cccc(C(F)(F)F)c1` [HTL-3-22, (E)-6-(3-furyl)-4-[3-(trifluoromethyl)phenyl]aminoquinoline-3-butenone] came in with a melting point of 151 to 154 °C. For the same compound, the IC50 in data set [1] (Enterovirus A, 96 h) is more than 200 µM. The compound also yielded a TD50 with RD cells of 1.55 ± 1.03 µM.

`CC(=O)/C=C/c1cnc2ccc(-c3cccs3)cc2c1Nc1cccc(C(F)(F)F)c1` [HTL-3-24, (E)-6-(2-thienyl)-4-[3-(trifluoromethyl)phenyl]aminoquinoline-3-butenone]: the melting point lay in the range of 181 to 185 °C. Also, the IC50 in data set [1] (Enterovirus A, 96 h) is more than 200 µM. This compound also displayed a TD50 in the data set with RD cells of 1.35 ± 1.16 µM.

As to `CC(=O)/C=C/c1cnc2ccc(-c3cnc4ccccc4c3)cc2c1Nc1cccc(C(F)(F)F)c1` [HTL-3-25, (E)-6-(3-quinolyl)-4-[3-(trifluoromethyl)phenyl]aminoquinoline-3-butenone], the melting point fell in the range of 173 to 176 °C. For the same compound, the half-inhibitory concentration (IC50) in data set [1] (Enterovirus A, 96 h) is more than 200 µM. In the data set with RD cells, this compound registered a TD50 of 0.68 ± 0.21 µM.

Take `CC(=O)/C=C/c1cnc2ccc(-c3cn[nH]c3)cc2c1Nc1cccc(C(F)(F)F)c1` [HTL-3-26, (E)-6-(1H-4-pyrazolyl)-4-[3-(trifluoromethyl)phenyl]aminoquinoline-3-butenone]: the melting point is 177 to 179 °C. Also, the “in vitro anti-EV71 activity, in words” value in data set [1] is on record as “moderate anti-EV71 activity”. In data set [1] (Enterovirus A, 96 h), the half-inhibitory concentration (IC50) is 0.85 ± 0.03 µM. In the data set with RD cells, this compound gave a TD50 of 1.43 ± 1.62 µM.

Turning to `CC(=O)/C=C/c1cnc2ccc(-c3ccc(F)c(C)c3)cc2c1Nc1cccc(C(F)(F)F)c1` [HTL-3-32, (E)-6-(4-fluoro-3-methyl)phenyl-4-[3-(trifluoromethyl)phenyl]aminoquinoline-3-butenone], the melting point lay within 209 to 210 °C. Also, in data set [1] (Enterovirus A, 96 h), the IC50 was more than 200 µM. This compound also returned a TD50 in the data set with RD cells of 1.52 ± 0.87 µM.

In turn, `CC(=O)/C=C/c1cnc2ccc(-c3ccc(F)cc3F)cc2c1Nc1cccc(C(F)(F)F)c1` [HTL-3-33, (E)-6-(2,4-difluoro)phenyl-4-[3-(trifluoromethyl)phenyl]aminoquinoline-3-butenone] gave a melting point of 162 to 164 °C. Further, the IC50 in data set [1] (Enterovirus A, 96 h) is more than 200 µM. In addition, the TD50 in the data set on RD cells amounted to 0.72 ± 0.66 µM.

`CC(=O)/C=C/c1cnc2ccc(-c3ccc(F)c(F)c3)cc2c1Nc1cccc(C(F)(F)F)c1` [HTL-3-34, (E)-6-(3,4-difluoro)phenyl-4-[3-(trifluoromethyl)phenyl]aminoquinoline-3-butenone] had a melting point of 210 to 213 °C. The IC50 in data set [1] (Enterovirus A, 96 h) is more than 200 µM. This compound also returned a TD50 in the data set on RD cells of 3.02 ± 0.91 µM.

As for `CC(=O)/C=C/c1cnc2ccc(-c3cccc(Cl)c3)cc2c1Nc1cccc(C(F)(F)F)c1` [HTL-3-36, (E)-6-(3-chloro)phenyl-4-[3-(trifluoromethyl)phenyl]aminoquinoline-3-butenone], the melting point lay in the range of 182 to 183 °C. In addition, the IC50 in data set [1] (Enterovirus A, 96 h) is more than 200 µM. For the same compound, in the data set with RD cells, the TD50 amounted to 4.65 ± 3.50 µM.

Consider `CC(=O)/C=C/c1cnc2ccc(-c3ccc(Cl)cc3)cc2c1Nc1cccc(C(F)(F)F)c1` [HTL-3-37, (E)-6-(4-chloro)phenyl-4-[3-(trifluoromethyl)phenyl]aminoquinoline-3-butenone], for which the melting point is 197 to 199 °C. The IC50 in data set [1] (Enterovirus A, 96 h) was more than 200 µM. The compound further showed a TD50 in the data set on RD cells of 1.88 ± 0.46 µM.

`O=c1ccc2cnc3ccc(Nc4ccc(C(F)(F)F)cc4)cc3c2n1-c1cccc(C(F)(F)F)c1` [HTL-6-16, 9-[4-(trifluoromethyl)phenyl]imino-2-oxo-1-[3-(trifluoromethyl)phenyl]-1,2-dihydrobenzo[h][1,6]naphthyridine]: the IC50 in data set [1] (Enterovirus A, 96 h) is more than 200 µM. Besides, the TD50 in the data set with RD cells stood at 7.06 ± 0.23 µM.

As for “(E)-6-[3-(N-6-benzyloxyamido)pyridyl]-4-[3-(trifluoromethyl)phenyl]aminoquinoline-3-butenone [HTL-7-22]”, the IC50 in data set [1] is more than 200 µM. The compound further returned a TD50 in the data set with RD cells of 9.4 ± 8.0 µM.
